Some results are limits rather than exact numbers.

In the experiment the target is T1, USP19 (Homo sapiens, UniProt O94966).
T1 sequence (O94966 1-1318): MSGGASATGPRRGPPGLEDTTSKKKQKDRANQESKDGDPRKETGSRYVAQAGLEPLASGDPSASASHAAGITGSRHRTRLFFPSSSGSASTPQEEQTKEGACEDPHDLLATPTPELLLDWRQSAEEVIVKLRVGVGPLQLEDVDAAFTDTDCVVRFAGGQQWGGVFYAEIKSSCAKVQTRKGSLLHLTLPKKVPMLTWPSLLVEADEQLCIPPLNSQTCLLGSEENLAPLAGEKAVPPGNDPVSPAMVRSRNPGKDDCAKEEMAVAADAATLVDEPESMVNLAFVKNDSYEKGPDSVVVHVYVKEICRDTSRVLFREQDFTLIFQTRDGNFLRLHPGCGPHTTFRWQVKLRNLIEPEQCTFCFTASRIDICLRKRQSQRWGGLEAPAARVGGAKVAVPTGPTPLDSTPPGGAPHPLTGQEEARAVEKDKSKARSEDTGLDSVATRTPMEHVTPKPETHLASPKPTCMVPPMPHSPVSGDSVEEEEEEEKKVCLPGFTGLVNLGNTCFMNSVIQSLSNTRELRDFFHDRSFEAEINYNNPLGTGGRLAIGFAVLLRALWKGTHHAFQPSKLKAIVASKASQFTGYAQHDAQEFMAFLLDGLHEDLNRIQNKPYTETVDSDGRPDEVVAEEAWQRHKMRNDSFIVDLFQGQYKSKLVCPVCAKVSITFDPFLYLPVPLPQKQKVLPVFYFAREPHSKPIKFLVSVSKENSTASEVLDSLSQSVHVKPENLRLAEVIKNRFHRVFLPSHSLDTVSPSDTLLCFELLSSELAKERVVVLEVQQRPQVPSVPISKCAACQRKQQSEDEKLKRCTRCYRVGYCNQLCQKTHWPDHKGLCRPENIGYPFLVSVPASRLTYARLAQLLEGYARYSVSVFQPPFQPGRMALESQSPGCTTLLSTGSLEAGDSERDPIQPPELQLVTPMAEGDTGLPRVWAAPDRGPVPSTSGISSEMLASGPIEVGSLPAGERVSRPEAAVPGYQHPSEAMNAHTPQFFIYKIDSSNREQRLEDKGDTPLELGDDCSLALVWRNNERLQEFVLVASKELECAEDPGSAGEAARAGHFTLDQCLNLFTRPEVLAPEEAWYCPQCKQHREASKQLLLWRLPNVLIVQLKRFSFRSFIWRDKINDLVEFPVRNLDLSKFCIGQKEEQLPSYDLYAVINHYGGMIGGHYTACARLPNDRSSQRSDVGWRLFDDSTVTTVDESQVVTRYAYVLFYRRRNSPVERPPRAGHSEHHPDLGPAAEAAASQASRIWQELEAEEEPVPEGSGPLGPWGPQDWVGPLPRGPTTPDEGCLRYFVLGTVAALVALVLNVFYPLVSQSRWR
As to the kind of experiment: USP19 fluorescence polarisation (FP) homogeneous assay. The following applies: Ubiquitin-Lys-TAMRA substrate, full-length USP19 2.5 nM, average of at least two duplicate experiments. The arrangement: Full-length USP19 was purchased from Boston Biochem (E-576); purchased Boston Biochem E-576. Format: biochemical. The method in brief:
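Inhibitors serially diluted in buffer (200 μM to 2 μM, 8-18 points) and preincubated 30 min at RT before starting with 500 nM Ub substrate.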
A general note: In fluorescence polarisation assays a small probe gives low polarisation when free and higher when bound to something large.

Usually IC50 stands for the midpoint of a concentration-inhibition curve. With `C[C@H](CC1CCCCC1)C(=O)N1CC[C@@](O)(Cn2cc(C(=O)N3CCNCC3)c(C3CC3)cc2=O)C2(CCCC2)C1` [Example 233, 1-(((S)-7-((R)-3-Cyclohexyl-2-methylpropanoyl)-10-hydroxy-7-azaspiro[4.5]decan-10-yl)methyl)-4-cyclopropyl-5-(piperazine-1-carbonyl)pyridin-2(1H)-one], the IC50 is less than 0.5 µM.

Turning to `C[C@H](CC1CCC1)C(=O)N1CC[C@@](O)(Cn2cc(C(=O)N3CCNCC3)c(-c3ccccc3F)cc2=O)C(C)(C)C1` [Example 236, 1-(((S)-1-((R)-3-Cyclobutyl-2-methylpropanoyl)-4-hydroxy-3,3-dimethylpiperidin-4-yl)methyl)-4-(2-fluorophenyl)-5-(piperazine-1-carbonyl)pyridin-2(1 H)-one], the IC50 was less than 0.5 µM. As to `C[C@H](CC1CCCCC1)C(=O)N1CCC(O)(Cn2cc(C(=O)N(C)C)c(-c3ccccc3)cc2=O)C2(CCCCC2)C1` (stereo partly drawn) [Example 237, 1-((2-((R)-3-Cyclohexyl-2-methylpropanoyl)-5-hydroxy-2-azaspiro[5.5]undecan-5-yl)methyl)-N,N-dimethyl-6-oxo-4-phenyl-1,6-dihydropyridine-3-carboxamide], the half-maximal inhibitory concentration (IC50) is less than 0.5 µM. With `C[C@H](CC1CCCCC1)C(=O)N1CCC(O)(Cn2cc(C(=O)N3CCNCC3)c(-c3ccccc3)cc2=O)C2(CCCCC2)C1` (stereo partly drawn) [Example 238, 1-((2-((R)-3-Cyclohexyl-2-methylpropanoyl)-5-hydroxy-2-azaspiro[5.5]undecan-5-yl)methyl)-4-phenyl-5-(piperazine-1-carbonyl)pyridin-2(1H)-one] the figure was less than 0.5 µM; with `C[C@H](CC1CCCCC1)C(=O)N1CC[C@@](O)(Cn2cc(C(=O)N3CCOCC3)c(-c3ccccc3)cc2=O)C2(CCCC2)C1` [Example 239, 1-(((S)-7-((R)-3-Cyclohexyl-2-methylpropanoyl)-10-hydroxy-7-azaspiro[4.5]decan-10-yl)methyl)-5-(morpholine-4-carbonyl)-4-phenylpyridin-2(1H)-one], less than 0.5 µM. Turning to `C[C@H](CC1CCCCC1)C(=O)N1CC[C@@](O)(Cn2cc(C(=O)N3CCN(C)CC3)c(-c3ccccc3)cc2=O)C2(CCCC2)C1` [Example 240, 1-(((S)-7-((R)-3-Cyclohexyl-2-methylpropanoyl)-10-hydroxy-7-azaspiro[4.5]decan-10-yl)methyl)-5-(4-methylpiperazine-1-carbonyl)-4-phenylpyridin-2(1 H)-one], the IC50 was less than 0.5 µM. With `CN(C)C(=O)c1cn(C[C@]2(O)CCN(C(=O)[C@H](CO)CC(F)(F)F)CC23CCCC3)c(=O)cc1-c1ccccc1` [Example 247, 1-(((S)-10-Hydroxy-7-((S)-4,4,4-trifluoro-2-(hydroxymethyl)butanoyl)-7-azaspiro[4.5]decan-10-yl)methyl)-N,N-dimethyl-6-oxo-4-phenyl-1,6-dihydropyridine-3-carboxamide] the figure was less than 0.5 µM; with `O=C(c1cn(C[C@]2(O)CCN(C(=O)[C@H](CO)CC(F)(F)F)CC23CCCC3)c(=O)cc1-c1ccccc1)N1CCOCC1` [Example 248, 1-(((S)-10-Hydroxy-7-((S)-4,4,4-trifluoro-2-(hydroxymethyl)butanoyl)-7-azaspiro[4.5]decan-10-yl)methyl)-5-(morpholine-4-carbonyl)-4-phenylpyridin-2(1H)-one], less than 0.5 µM. With `O=C(c1cn(C[C@]2(O)CCN(C(=O)[C@H](CO)CC(F)(F)F)CC23CCCC3)c(=O)cc1-c1ccccc1)N1CCNCC1` [Example 249, 1-(((S)-10-Hydroxy-7-((S)-4,4,4-trifluoro-2-(hydroxymethyl)butanoyl)-7-azaspiro[4.5]decan-10-yl)methyl)-4-phenyl-5-(piperazine-1-carbonyl)pyridin-2(1H)-one] the figure was less than 0.5 µM; with `C[C@H](CC(F)(F)F)C(=O)N1CC[C@@](O)(Cn2cc(C(=O)N3CCOCC3)c(-c3ccccc3)cc2=O)C2(CCCC2)C1` [Example 250, 1-(((S)-10-Hydroxy-7-((R)-4,4,4-trifluoro-2-methylbutanoyl)-7-azaspiro[4.5]decan-10-yl)methyl)-5-(morpholine-4-carbonyl)-4-phenylpyridin-2(1H)-one], less than 0.5 µM; with `C[C@H](CC(F)(F)F)C(=O)N1CC[C@@](O)(Cn2cc(C(=O)N3CCN(C)CC3)c(-c3ccccc3)cc2=O)C2(CCCC2)C1` [Example 251, 1-(((S)-10-Hydroxy-7-((R)-4,4,4-trifluoro-2-methylbutanoyl)-7-azaspiro[4.5]decan-10-yl)methyl)-5-(4-methylpiperazine-1-carbonyl)-4-phenylpyridin-2(1 H)-one], less than 0.5 µM. In the case of `CCOC(=O)c1cn(C[C@]2(O)CCN(C(=O)[C@H](C)CC3CCCCC3)CC23CCCC3)c(=O)cc1-c1ccccc1` [Example 252, Ethyl 1-(((S)-7-((R)-3-cyclohexyl-2-methylpropanoyl)-10-hydroxy-7-azaspiro[4.5]decan-10-yl)methyl)-6-oxo-4-phenyl-1,6-dihydropyridine-3-carboxylate] it was less than 0.5 µM; in that of `C[C@H](CC1CCCCC1)C(=O)N1CC[C@@](O)(Cn2cc(C(=O)O)c(-c3ccccc3)cc2=O)C2(CCCC2)C1` [Example 253, 1-(((S)-7-((R)-3-Cyclohexyl-2-methylpropanoyl)-10-hydroxy-7-azaspiro[4.5]decan-10-yl)methyl)-6-oxo-4-phenyl-1,6-dihydropyridine-3-carboxylic acid], less than 0.5 µM. `O=C([C@@H]1CCNC[C@H]1c1ccccc1)N1CCC(O)(Cn2cnc(-c3ccccc3)cc2=O)C2(CCCC2)C1` (stereo partly drawn) [Example 254, 3-((10-Hydroxy-7-((3R,4R)-3-phenylpiperidine-4-carbonyl)-7-azaspiro[4.5]decan-10-yl)methyl)-6-phenylpyrimidin-4(3H)-one]: the half-maximal inhibitory concentration (IC50) is less than 0.5 µM. As for `C[C@H](CC(F)(F)F)C(=O)N1CC[C@@](O)(Cn2cnc(-c3ccccc3)cc2=O)C2(CCCC2)C1` [Example 255, 3-(((S)-10-Hydroxy-7-((R)-4,4,4-trifluoro-2-methylbutanoyl)-7-azaspiro[4.5]decan-10-yl)methyl)-6-phenylpyrimidin-4(3H)-one], the IC50 is less than 0.5 µM. Consider `C[C@H](CC(F)(F)F)C(=O)N1CC[C@@](O)(Cn2cnc(-c3ccccc3F)cc2=O)C2(CCCC2)C1` [Example 256, 6-(2-Fluorophenyl)-3-(((S)-10-hydroxy-7-((R)-4,4,4-trifluoro-2-methylbutanoyl)-7-azaspiro[4.5]decan-10-yl)methyl)pyrimidin-4(3H)-one], for which the IC50 is less than 0.5 µM. For `C[C@H](CC(F)(F)F)C(=O)N1CC[C@@](O)(Cn2cnc(-c3cccc(F)c3)cc2=O)C2(CCCC2)C1` [Example 257, 6-(3-Fluorophenyl)-3-(((S)-10-hydroxy-7-((R)-4,4,4-trifluoro-2-methylbutanoyl)-7-azaspiro[4.5]decan-10-yl)methyl)pyrimidin-4(3H)-one], the IC50 is less than 0.5 µM.

For the compound `C[C@H](CC(C)(F)F)C(=O)N1CC[C@@](O)(Cn2cnc(-c3ccccc3)cc2=O)C2(CCCC2)C1` [Example 258, 3-(((S)-7-((R)-4,4-Difluoro-2-methylpentanoyl)-10-hydroxy-7-azaspiro[4.5]decan-10-yl)methyl)-6-phenylpyrimidin-4(3H)-one], the IC50 is less than 0.5 µM.

The values are drawn from patent publication US20220016115A1, “USP19 INHIBITORS FOR USE IN THERAPY” (ALMAC DISCOVERY LIMITED, priority 2018, published 2022).
